Laboratory results published in US12264156B2, “Compounds and pharmaceutical compositions thereof for the treatment of diseases” (GALAPAGOS NV, priority 2018, dated 2025).

Assays:
TNFα = experiment: Mouse LPS-induced endotoxic shock, plasma TNFα; type: in vivo; design: key: +: statistically significant inhibition of TNFα; −: no effect on the level of TNFα; conditions: p.o., plasma 90 min after LPS challenge
Method: (§1) Injection of lipopolysaccharide (LPS) induces a rapid release of soluble tumour necrosis factor (TNFα) into the periphery. This model was used to assess prospective blockers of TNFα release in vivo.
(§2) Lipopolysaccharide (LPS) from Escherichia Coli serotype O111:B4 was obtained from Sigma Aldrich (Cat #L2630).
(§3) BALB/cAnNCrl mice (female, 18-20 g body weight) were obtained from Charles River (Calco, Italy). Mice were kept on a 12 h light/dark cycle. Temperature was maintained at 22±2° C., food and water were provided ad libitum.
(§4) Mice were dosed once by oral (p.o.) or subcutaneous (sc) route with the tested compound in the appropriate vehicle.
(§5) At the Tmax of compound, 100 μg of LPS (in H2O) was injected intraperitoneally to mice. A control group was included which comprises administering the vehicle without an LPS challenge.
(§6) Mice were sacrificed 90 min after LPS challenge and blood was collected in heparinised tubes. Plasma was obtained by centrifugation for 15 min, 2000×g at +4° C. and frozen at −80° C. before cytokine analysis.
(§7) TNFα and IL-10 were quantified in plasma by AlphaLISA detection kits obtained from PerkinElmer (Massachusetts, USA), Cat4 AL505C and AL502C, respectively.
(§8) Statistics were performed with Prism 5.03 software (GraphPad) using an ANOVA analysis of variance with Dunnett's post-hoc test versus LPS group.
(§9) Active compounds were defined as showing a statistically significant decrease in TNFα with or without a statistically significant induction of IL-10

[1] = tested on: LPS triggered IL-10 secretion in monocytes; experiment: Monocytes assay: LPS-triggered IL-10 (ELISA); type: cell-based, human; conditions: LPS 200 ng/mL, supernatant after 4 h, maximal fold change vs LPS only
Summary of the method: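 Human CD14+ monocytes, magnetically isolated from buffy-coat PBMCs, were seeded at 100 000 cells/well and preincubated with compound for 1 h at 37° C (0.2% DMSO). LPS was then added at a final 200 ng/mL for 4 h. Supernatant IL-10 was quantified by chemiluminescent sandwich ELISA against a standard curve.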

IL-10 = experiment: Mouse LPS-induced endotoxic shock, plasma IL-10; type: in vivo; design: key: +: statistically significant induction of IL-10; −: no effect on the level of IL-10; conditions: p.o., plasma 90 min after LPS challenge
Method: as §1, §2, §3, §4, §5, §6, §7, §8, §9

Compound: COc1cc(-c2cnc3cc(OCCN4CCOCC4)ccn23)cc2c1C(=O)N(CC(F)(F)F)CC2 [Cpd 88, 8-methoxy-6-[7-(2-morpholinoethoxy)imidazo [1,2-a]pyridin-3-yl]-2-(2,2,2-trifluoroethyl)-3,4-dihydroisoquinolin-1-one]
- TNFα (TNFα; 3 mg/kg): +
- TNFα (TNFα; 10 mg/kg): +
- TNFα (TNFα; 30 mg/kg): +
- IL-10 FCmax median [1]: +++ (>4.5)
- IL-10 (IL-10; 3 mg/kg): −
- IL-10 (IL-10; 10 mg/kg): +
- IL-10 (IL-10; 30 mg/kg): +

Compound: CCOC(=O)C1(F)CCN(CCCOc2ccn3c(-c4cc(OC)c(C(=O)NC5CC5)c(OC(F)F)c4)cnc3c2)CC1 [Cpd 363, ethyl 1-[3-[3-[4-(cyclopropylcarbamoyl)-3-(difluoromethoxy)-5-methoxy-phenyl]imidazo[1,2-a]pyridin-7-yl]oxypropyl]-4-fluoro-piperidine-4-carboxylate]
- IL-10 FCmax median [1]: +++ (>4.5)

Compound: COc1cc(-c2cnc3cc(OCCN4CCN(C)CC4)ccn23)cc(OC(F)F)c1C(=O)NC1CC1 [compound 9, N-cyclopropyl-2-(difluoromethoxy)-6-methoxy-4-[7-[2-(4-methylpiperazin-1-yl)ethoxy]imidazo[1,2-a]pyridin-3-yl]benzamide]
- IL-10 FCmax median [1]: +++ (>4.5)

Compound: COc1cc(-c2cnc3cc(OC(C)(C)CO)ccn23)cc(OC(F)F)c1C(=O)NC1CC1 [Cpd 209, N-cyclopropyl-2-(difluoromethoxy)-4-[7-(2-hydroxy-1,1-dimethyl-ethoxy)imidazo[1,2-a]pyridin-3-yl]-6-methoxy-benzamide]
- IL-10 FCmax median [1]: + (≤1.5)

Compound: COc1cc(-c2cnc3cc(OCCN(C)C)ccn23)cc2c1C(=O)N(CC(F)(F)F)CC2 [Cpd 18, 6-[7-[2-(dimethylamino)ethoxy]imidazo[1,2-a]pyridin-3-yl]-8-methoxy-2-(2,2,2-trifluoroethyl)-3,4-dihydroisoquinolin-1-one]
- TNFα (TNFα; 3 mg/kg): −
- TNFα (TNFα; 10 mg/kg): −
- IL-10 (IL-10; 3 mg/kg): −
- IL-10 (IL-10; 10 mg/kg): −

Compound: COc1cc(-c2cnc3cc(OCCN4CCN(C(C)C)CC4)ccn23)cc(OC(F)F)c1C(=O)NC1CC1 [compound 276, N-cyclopropyl-2-(difluoromethoxy)-4-[7-[2-(4-isopropylpiperazin-1-yl)ethoxy]imidazo[1,2-a]pyridin-3-yl]-6-methoxy-benzamide]
- IL-10 FCmax median [1]: ++ (>1.5-4.5)

Compound: COc1cc(-c2cnc3cc(OCCCN4CC5(COC5)C4)ccn23)cc(OC(F)F)c1C(=O)NC1CC1 [compound 273, N-cyclopropyl-2-(difluoromethoxy)-6-methoxy-4-[7-[3-(2-oxa-6-azaspiro[3.3]heptan-6-yl)propoxy]imidazo[1,2-a]pyridin-3-yl]benzamide]
- IL-10 FCmax median [1]: ++ (>1.5-4.5)

Compound: COc1cc(-c2cnc3cc(OCCCN4CCC4)ccn23)cc(OC(F)F)c1C(=O)NC1CC1 [compound 274, 4-[7-[3-(azetidin-1-yl)propoxy]imidazo[1,2-a]pyridin-3-yl]-N-cyclopropyl-2-(difluoromethoxy)-6-methoxy-benzamide]
- IL-10 FCmax median [1]: ++ (>1.5-4.5)

Compound: COc1cc(-c2cnc3cc(OCCN4CCOC[C@H]4C)ccn23)cc2c1C(=O)N(CC(F)(F)F)CC2 [compound 259, 8-methoxy-6-[7-[2-[(3R)-3-methylmorpholin-4-yl]ethoxy]imidazo[1,2-a]pyridin-3-yl]-2-(2,2,2-trifluoroethyl)-3,4-dihydroisoquinolin-1-one]
- IL-10 FCmax median [1]: +++ (>4.5)

Compound: COc1cc(-c2cnc3cc(OC[C@@H]4COCCO4)ccn23)cc2c1C(=O)N(CC(F)(F)F)CC2 [compound 225, 6-[7-[[(2S)-1,4-dioxan-2-yl]methoxy]imidazo[1,2-a]pyridin-3-yl]-8-methoxy-2-(2,2,2-trifluoroethyl)-3,4-dihydroisoquinolin-1-one]
- TNFα (TNFα; 3 mg/kg): +
- TNFα (TNFα; 10 mg/kg): +
- IL-10 FCmax median [1]: +++ (>4.5)
- IL-10 (IL-10; 3 mg/kg): +
- IL-10 (IL-10; 10 mg/kg): +

Compound: COc1cc(-c2cnc3cc(OCC4(C)CN(C)C4)ccn23)cc(OC(F)F)c1C(=O)NC1CC1 [compound 220, N-cyclopropyl-2-(difluoromethoxy)-4-[7-[(1,3-dimethylazetidin-3-yl)methoxy]imidazo[1,2-a]pyridin-3-yl]-6-methoxy-benzamide]
- IL-10 FCmax median [1]: +++ (>4.5)

Compound: COc1cc(-c2cnc3cc(OCCN(C)C)ccn23)cc(OC(F)F)c1C(=O)NC1CC1 [Cpd 6, N-cyclopropyl-2-(difluoromethoxy)-4-[7-[2-(dimethylamino)ethoxy]imidazo[1,2-a]pyridin-3-yl]-6-methoxy-benzamide]
- TNFα (TNFα; 3 mg/kg): −
- TNFα (TNFα; 10 mg/kg): +
- IL-10 FCmax median [1]: +++ (>4.5)
- IL-10 (IL-10; 3 mg/kg): −
- IL-10 (IL-10; 10 mg/kg): +

Compound: COc1cc(-c2cnc3cc(OC[C@H]4COCCO4)ccn23)cc2c1C(=O)NCC2 [compound 242, 6-[7-[[(2R)-1,4-dioxan-2-yl]methoxy]imidazo[1,2-a]pyridin-3-yl]-8-methoxy-3,4-dihydro-2H-isoquinolin-1-one]
- IL-10 FCmax median [1]: ++ (>1.5-4.5)

Compound: COc1cc(-c2cnc3cc(OCCN4CCOC[C@@H]4C)ccn23)cc2c1C(=O)N(CC(F)(F)F)CC2 [Cpd 257, 8-methoxy-6-[7-[2-[(3S)-3-methylmorpholin-4-yl]ethoxy]imidazo[1,2-a]pyridin-3-yl]-2-(2,2,2-trifluoroethyl)-3,4-dihydroisoquinolin-1-one]
- IL-10 FCmax median [1]: +++ (>4.5)

Compound: COc1cc(-c2cnc3cc(OC[C@H]4COCCO4)ccn23)cc2c1C(=O)N(CC(F)(F)F)CC2 [Cpd 86, 6-[7-[[(2R)-1,4-dioxan-2-yl]methoxy]imidazo[1,2-a]pyridin-3-yl]-8-methoxy-2-(2,2,2-trifluoroethyl)-3,4-dihydroisoquinolin-1-one]
- TNFα (TNFα; 3 mg/kg): +
- TNFα (TNFα; 10 mg/kg): +
- IL-10 FCmax median [1]: +++ (>4.5)
- IL-10 (IL-10; 3 mg/kg): +
- IL-10 (IL-10; 10 mg/kg): +

Compound: COc1cc(-c2cnc3cc(OCC4(F)CN(C)C4)ccn23)cc2c1C(=O)N(CC(F)(F)F)CC2 [compound 252, 6-[7-[(3-fluoro-1-methyl-azetidin-3-yl)methoxy]imidazo[1,2-a]pyridin-3-yl]-8-methoxy-2-(2,2,2-trifluoroethyl)-3,4-dihydro isoquinolin-1-one]
- IL-10 FCmax median [1]: +++ (>4.5)

Compound: COc1cc(-c2cnc3cc(OCC(O)CN4CCOCC4)ccn23)cc(OC(F)F)c1C(=O)NC1CC1 (centres unmarked) [Cpd 330, N-cyclopropyl-2-(difluoromethoxy)-4-[7-(2-hydroxy-3-morpholino-propoxy)imidazo[1,2-a]pyridin-3-yl]-6-methoxy-benzamide]
- IL-10 FCmax median [1]: +++ (>4.5)
